In patent US11725036B2, “Modified lipidated relaxin B chain peptides and their therapeutic use” (Sanofi, priority 2018, dated 2023):
Starred links: 1 amine or outer side, 2 acyl side, 3 side chain; linkers in the order of their positions; H or OH if unused. Non-standard residues stand in square brackets, D forms with d. Residues, ends and D or L forms follow the SMILES beside them. Groups on a side chain read outwards from the residue. *: point of attachment. X1 = CCCCCCCCCCCCCCCC(=O)N[C@@H](CCC(=O)N[C@@H](CCC(=O)N[C@@H](CCC(=O)NCCCOCCOCCOCCCNC(=O)CCC(=O)NCCCOCCOCCOCCCNC(=O)CCC(=O)NCCCOCCOCCOCCCN*)C(=O)O)C(=O)O)C(=O)O; X2 = CCCCCCCCCCCCCCCC(=O)N[C@@H](CCC(=O)N[C@@H](CCC(=O)N[C@@H](CCC(=O)NCCCOCCOCCOCCCNC(=O)CCC(=O)NCCCOCCOCCOCCCN*)C(=O)O)C(=O)O)C(=O)O; Suc = O=C(CCC(=O)[*:2])[*:1]; αMeK = C[C@](N)(CCCCN)C(=O)O; Aib = CC(C)(N)C(=O)O

Biological target: T1, RXFP1 (Homo sapiens, UniProt Q9HBX9)
T1 construct: OVCAR5 cells expressing endogenous RXFP1; endogenous in cells; host or cells: OVCAR5
T1 sequence (Q9HBX9 1-757): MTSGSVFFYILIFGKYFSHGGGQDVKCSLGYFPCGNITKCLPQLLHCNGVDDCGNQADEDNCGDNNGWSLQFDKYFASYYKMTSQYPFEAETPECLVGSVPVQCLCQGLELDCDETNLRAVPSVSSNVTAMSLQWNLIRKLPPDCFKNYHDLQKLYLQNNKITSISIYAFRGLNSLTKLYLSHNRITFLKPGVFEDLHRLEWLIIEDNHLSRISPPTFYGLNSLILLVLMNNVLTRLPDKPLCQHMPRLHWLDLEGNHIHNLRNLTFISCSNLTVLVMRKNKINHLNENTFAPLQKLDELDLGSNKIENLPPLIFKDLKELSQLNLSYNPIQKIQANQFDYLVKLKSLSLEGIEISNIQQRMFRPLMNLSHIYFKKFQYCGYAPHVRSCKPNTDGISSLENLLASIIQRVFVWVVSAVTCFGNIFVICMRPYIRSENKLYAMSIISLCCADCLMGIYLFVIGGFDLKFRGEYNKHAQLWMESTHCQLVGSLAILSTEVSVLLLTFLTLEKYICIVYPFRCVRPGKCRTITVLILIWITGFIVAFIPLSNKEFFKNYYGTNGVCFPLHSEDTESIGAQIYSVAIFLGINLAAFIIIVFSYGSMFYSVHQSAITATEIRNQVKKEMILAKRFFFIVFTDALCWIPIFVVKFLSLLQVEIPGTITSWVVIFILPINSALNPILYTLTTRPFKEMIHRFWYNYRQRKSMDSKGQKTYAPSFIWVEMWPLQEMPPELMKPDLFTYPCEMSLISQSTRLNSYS
Assay: OVCAR5 cAMP assay (HTRF)
Type: cell-based
Conditions: for EC50: OVCAR 5 cells expressing endogenous RXFP1, cAMP readout; for Emax: OVCAR 5 cells, maximal cAMP relative to H2-relaxin
Outline: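 Peptide agonism measured as intracellular cAMP (HTRF) after 30 min at 37° C in serum-free medium, following 40 min 1 mM IBMX preincubation of OVCAR5 cells. Nonlinear regression gave EC50; Emax % = 100 × compound maximal cAMP / H2-relaxin maximal cAMP.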

SMILES: CCCCCCCCCCCCCCCC(=O)N[C@@H](CCC(=O)N[C@@H](CCC(=O)N[C@@H](CCC(=O)NCCCOCCOCCOCCCNC(=O)CCC(=O)NCCCOCCOCCOCCCNC(=O)CCC(=O)NCCCC[C@H](NC(=O)CNC(=O)[C@H](CCC(=O)O)NC(=O)C(C)(C)NC(=O)C(C)(C)NC(=O)[C@@H](NC(=O)[C@H](CCCCNC(C)=O)NC(=O)[C@H](C)NC(=O)[C@H](CCCNC(=N)N)NC(=O)[C@@H](NC(=O)[C@H](CCCCN)NC(=O)[C@H](CCC(=O)O)NC(=O)[C@H](CCCNC(=N)N)NC(=O)CNC(=O)[C@H](CCC(=O)O)NC(=O)[C@H](CC(C)C)NC(C)=O)C(C)C)[C@@H](C)CC)C(=O)N[C@@H](CO)C(=O)N[C@H](C(=O)N[C@@H](Cc1c[nH]c2ccccc12)C(=O)N[C@@H](CO)C(=O)NC(C)(C)C(=O)N[C@@H](CCCNC(=N)N)C(=O)N[C@@H](CCCCN)C(=O)N[C@@H](CCCCNC(C)=O)C(N)=O)[C@@H](C)O)C(=O)O)C(=O)O)C(=O)O [compound 4] (Ac-LEGREKVRAK(Ac)I[Aib][Aib]EGK([Suc-X2])STWS[Aib]RKK(Ac)-NH2)
- EC50: 1.5 nM
- Emax: 89%

SMILES: CCCCCCCCCCCCCCCC(=O)N[C@@H](CCC(=O)N[C@@H](CCC(=O)N[C@@H](CCC(=O)NCCCOCCOCCOCCCNC(=O)CCC(=O)NCCCOCCOCCOCCCNC(=O)CCC(=O)NCCCOCCOCCOCCCNC(=O)CCC(=O)NCCCC[C@H](NC(=O)CNC(=O)[C@H](CCC(=O)O)NC(=O)C(C)(C)NC(=O)C(C)(C)NC(=O)[C@@H](NC(=O)[C@H](CCCCNC(C)=O)NC(=O)[C@H](C)NC(=O)[C@H](CCCNC(=N)N)NC(=O)[C@@H](NC(=O)[C@H](CCCCN)NC(=O)[C@H](CCC(=O)O)NC(=O)[C@H](CCCNC(=N)N)NC(=O)CNC(=O)[C@H](CCC(=O)O)NC(=O)[C@H](CC(C)C)NC(C)=O)C(C)C)[C@@H](C)CC)C(=O)N[C@@H](CO)C(=O)N[C@H](C(=O)N[C@@H](Cc1ccccc1)C(=O)N[C@@H](CO)C(=O)N[C@@](C)(CCCCN)C(=O)N[C@@H](CCCNC(=N)N)C(=O)N[C@@H](C)C(=O)N[C@@H](CCCCNC(C)=O)C(N)=O)[C@@H](C)O)C(=O)O)C(=O)O)C(=O)O [compound 3] (Ac-LEGREKVRAK(Ac)I[Aib][Aib]EGK([Suc-X1])STFS[αMeK]RAK(Ac)-NH2)
- EC50: 0.34 nM
- Emax: 97%
